Read-outs that look alike come from different tables or passages of the source.

One assay has as its system Clostridium Difficile. Briefly: In vitro MIC and MBC against Clostridium difficile (Example 6). It counts as cell-based.
Assay [1] deals with Clostridium Perfringens (type A strain EHE-NE36). Particulars: NE challenged broilers; for median lesion scores: relative to nil-treatment; for small intestinal lesion scores: relative to nil treatment groups.
Assay [2] is described as follows: Feed palatability, feed and water consumption and bird productivity study (Example 2): feed intake, water intake, bodyweight, FCR. Format: in vivo, broiler chickens. An excerpt: A follow-up study to determine the feed palatability, feed and water consumption and bird productivity following incorporation of a single formulation of IRP001 hemisulfate salt (unmasked) when offered to broiler chickens in-feed or in-water. The study explores the optimal treatment regime in terms of treatment start date.
Phase 1: On receipt, two hundred and seventy (270) day-old commercial broiler chickens were allocated sequentially as they are received into sixteen (16) individual floor pens, each of 16 or 17 birds, on Day 0.
Phase 2: On receipt, the ninety (90) day-old commercial broiler chickens were allocated sequentially as they are received into four (4) individual floor pens, each of 22 or 23 birds, on Day 22.
Feed intake, water intake, weight gain and mortality were used as outcome parameters.
Individual daily feed intake and individual daily water intake data by pen and then by treatment group were calculated for Phases 1 and 2 (and for the entire trial for the birds in Group/Pen 2, 15 and 16 that continue through both Phases) using figures for total feed and water provided each day to each pen divided by the number of birds in each pen. Where errors in weighing, feeding/watering or recording (or other unexplained losses of feed and water) had occurred means were adjusted by using the mean value for the same pen on the 1-2 days either side of the apparent error. Similarly, group mean bodyweights were calculated for Phase 1 using total weight/total no. birds for Day 0 and individual weights from Days 7, 14, 21, 28, 35 and 42. Total (individual) feed consumed was calculated per treatment and feed conversion ratios per treatment calculated using the expression: total (individual) feed/total (individual) weight gain. […]

Turning to `CN[C@H](CC(C)C)C(=O)N[C@H]1C(=O)N[C@@H](CC(N)=O)C(=O)N[C@H]2C(=O)N[C@H]3C(=O)N[C@H](C(=O)N[C@H](C(=O)O)c4cc(O)cc(O)c4-c4cc3ccc4O)[C@H](O)c3ccc(c(Cl)c3)Oc3cc2cc(c3O[C@@H]2O[C@H](CO)[C@@H](O)[C@H](O)[C@H]2O[C@H]2C[C@](C)(N)[C@H](O)[C@H](C)O2)Oc2ccc(cc2Cl)[C@H]1O` [Vancomycin, reference compound], the MIC entry against Clostridium Difficile and in the assay on Clostridium Perfringens was “within the expected range” throughout.

Regarding berberine hemisulfate [IRP001 sulfate], the median lesion scores entry in assay [1] (0.1 g/L in-water) and in assay [1] (0.2 g/kg in-feed) was “no reduction in median lesion scores” in each case. Besides, the “Mortalities prior to autopsy” value in assay [1] (0.1 g/L in-water, versus nil-treatment) was “not significantly different”; in assay [1] (0.2 g/kg in-feed, versus nil-treatment), “not significantly different”; in assay [1] (1.0 g/L in-water, relative to nil-treatment and low-dose groups) it was “significant reduction in mortalities”; in assay [1] (2.0 g/kg in-feed, relative to nil-treatment and low-dose groups), “significant reduction in mortalities”. For the same molecule, the “small intestinal lesion scores” value in assay [1] (1.0 g/L in-water) and in assay [1] (2.0 g/kg in-feed) was “substantial reduction in small intestinal lesion scores” in each case. Besides, the bodyweight entry is “no significant difference” in assay [2] (Phase 1+2, Pen 2 untreated vs 15/16 treated in-water Day 6-42, pair-wise comparison p<0.05); “did not appear to affect” in assay [2] (Phase 1, unmasked treatment via drinking water (1.0 g per L) over varying periods); “did not appear to affect” in assay [2] (Phase 2, treatment in-feed (2.0 g per kg of feed)). Further, the “inhibition of growth at 62.5 μg/ml” value in the assay with Clostridium Perfringens (Necrotic Enteritis strain of C. perfringens, 62.5 μg/ml) was “partial inhibition of growth”. In addition, in the assay with Clostridium Perfringens (Necrotic Enteritis strain of C. perfringens, test agent Berberine sulfate, purity 98.0%), the MIC (commonly the least concentration at which growth counts as inhibited) was determined as 125 µg/mL.

Source of the values: US12225917B2 (priority 2017, dated 2025).
